Consider five compounds from patent US12653862B2, “Anti-senescence compounds and uses thereof” (CLEARA BIOTECH B.V., priority 2020, dated 2026).

Data set [1] concerns colon cancer 3D organoids. The experiment in a line: Colon cancer 3D organoids, live/dead assay, with chemotherapy. The note with it: colon cancer 3D organoids. It is filed as cell-based. The protocol: (§1) Organoids were grown at 37° C. and 5% CO2 in a humidified incubator. All organoids were cultured in matrigel (Corning) droplets in advanced DMEM/F12 (Lonza) supplemented with 1% glutamax, 1% Penicillin/Streptomycin, 1% (10 mM) HEPES, 10% Noggin conditioned medium, 2% B-27 (50×; (Thermo/Life Technologies), N-acetylcysteine ((Sigma-Aldrich, 1.25 mM)), A83-01 (Tocris, 500 nM) and SB203580 (Invitrogen/Life Technologies, 3 μM). To perform viability and apoptosis assays, the organoids were passaged through resuspension in ice-cold medium, followed by centrifugation in 15 ml tubes at 4° C. The resulting pellet was trypsinized for 5 minutes at 37° C. to obtain single cells and subsequently washed twice with advanced DMEM/F12 media. These cells were then resuspended in Matrigel and plated in 96-well plates in 5 ul droplets. 100 ul fresh medium was added to the wells 15 minutes later. Peptide and chemotherapy treatment was added to the organoids 2 days after plating.
A Live/dead assay was performed on both larger organoids 3 days after peptide and/or chemotherapy treatment, or on organoids that were treated as single cells and allowed to grow out for 2 weeks before the assay was performed. To perform the assay, Calcein-AM (1:1000) and Propidium Iodide (PI; 1:100) were added to the medium of the organoids to detect living and dead cells respectively. The organoids were then imaged on a Zeiss Cell Observer microscope and the signal was quantified using FIJI.

The nature of data set [2]: Peptide stability in solution. Type of data set: physicochemical. The method, then:
Both peptides were dissolved in H2O and kept at room temperature. The peptide concentration was determined for the indicated time points.

Another data set relates to IMR90 lung fibroblasts. Put plainly: Caspase-3/7 apoptosis assay in senescent vs healthy control IMR90 cells. Type of data set: cell-based, Human. The note with it: IMR90, FOXO4-DRI as control. The protocol:
Human IMR90, WI38 and RPE cells were grown in Dulbecco's Modified Eagle's Medium (DMEM; Lonza) containing 10% FCS and 1% pen/strep at 37° C. with 3.0% 02 and 5.0% CO2. To induce senescence, cells were irradiated with 10Gy ionizing radiation (Gammacell 1000) and were left for a minimum of 10 days to become senescent.
To perform viability and apoptosis assays, cells were split into 96-well plates and treated with peptides 2 days later. Non-senescent and cancer cells were plated 1500 cells/well, while senescent cells were plated at 8.000 cells/well.
For a caspase assay, Caspase-Glo 3/7 assay reagent (Promega) was added to the medium 2 days after treatment. The plates were then incubated in aluminium foil at room temperature on a shaker for 1 hour and subsequently measured with a Luminescence Plate Reader.

Data set [3] has as its system WT colon and tumor progression (TPO) organoids. The experiment in a line: Cell viability of WT colon and tumor progression (TPO) organoids. It is filed as cell-based. The note with it: increasing concentrations, measured 5 days later. The protocol:
as §1

Take `O=c1[nH]cc(F)c(=O)[nH]1` [SFU, 5-fluorouracil, reference compound]: the “cell death vs cell cycle arrest” value in data set [1] was “merely causes a cell cycle arrest”. AKIEAAILDAFSQNBRKRRRRQRRKKRG [CL05114]: the stability in solution entry in data set [2] was “superior stability”. Still for that read-out and setting: under “RKKASSKIAAAILDAFSQNAWANRRSSCKRPPPRRRQRRKKRA (listed as Homo sapiens) [SEQ ID NO: 23]” stands “improved stability in solution”. With “RKKASSKIAAAILDAFSQNWRRKR (listed as Homo sapiens) [CL04088]”, the “apoptosis induction by Caspase-3/7 activation, senescent vs healthy control cells” value in the data set on IMR90 lung fibroblasts is reported as “superior to peptide CL04022”. In the case of “RKKASSKIEAAILDAFSQNWRRKRPPRRRQRRKKRG (listed as Homo sapiens) [CL04124]”, the “cell viability, sensitivity of organoids with colorectal cancer associated mutations” value in data set [3] is on record as “sensitizes to FOXO4-based peptides, dependent on p53”.
